Measured values as given in US20130203659A1 (priority 2006, published 2013).
Where two headings read alike, the source gives them in different places. Positions of bridges follow the written chain, without caps; N, C: chain ends. Residues, ends and D or L forms follow the SMILES beside them. No end group written: not given here. branched PEG 40 kDa = branched polyethylene glycol of 40 kDa

Tests used:
[1] = molecular target: T1, human GLP-1 receptor (Homo sapiens, UniProt P43220); assay: GLP-1R reporter assay (cAMP-regulated luciferase, CHOK1 cells), human receptor; format: cell-based
T1 construct: expressed in transfected cells; host or cells: CHOK1 cells with a cAMP-regulated luciferase reporter construct
Experimental: (§1) A. GLP-1R Reporter Assay:
(§2) Increased cAMP levels were measured through enhanced expression of a luciferase reporter gene. […] The evening prior to assay, the cells were washed, the medium replaced with serum-free medium containing 0.5% protease-free bovine serum albumin (BSA), and then cultured overnight. […] Cell lysates were assayed for luciferase activity using the Luciferase Assay System (Promega Corporation, Madison, Wis.). Luciferase activity was measured using a Luminoskan Ascent (Thermo Electron Corporation, Marietta, Ohio). Nonlinear regression analyses of resultant compound concentration curves were performed using GraphPad Prism (GraphPad Software, Inc., San Diego, Calif.).

[2] = molecular target: T2, mouse GLP-1 receptor (Mus musculus, UniProt O35659); assay: GLP-1R reporter assay (cAMP-regulated luciferase, CHOK1 cells), mouse receptor; format: cell-based; conditions: 6 hours exposure
T2 construct: expressed in transfected cells; host or cells: CHOK1 cells with a cAMP-regulated luciferase reporter construct
T2 sequence (O35659 22-463): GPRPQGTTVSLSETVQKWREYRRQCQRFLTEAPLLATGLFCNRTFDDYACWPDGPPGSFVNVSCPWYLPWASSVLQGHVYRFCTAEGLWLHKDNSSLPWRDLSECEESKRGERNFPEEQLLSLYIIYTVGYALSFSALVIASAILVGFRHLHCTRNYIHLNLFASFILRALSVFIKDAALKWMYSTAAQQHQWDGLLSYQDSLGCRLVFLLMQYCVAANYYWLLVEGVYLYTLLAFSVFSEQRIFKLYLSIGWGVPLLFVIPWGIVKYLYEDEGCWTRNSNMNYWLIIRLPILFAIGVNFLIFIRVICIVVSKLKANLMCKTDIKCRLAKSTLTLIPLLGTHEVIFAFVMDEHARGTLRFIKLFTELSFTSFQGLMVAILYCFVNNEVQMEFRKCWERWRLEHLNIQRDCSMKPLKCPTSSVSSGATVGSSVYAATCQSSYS
Experimental: as §1, §2

[3] = molecular target: T1, human GLP-1 receptor; assay: In vitro GLP-1 receptor binding (125I-GLP-1 ligand binding assay), human receptor
Experimental: Cells were sedimented at 1500 rpm for 10 minutes. The resulting pellets were homogenized in 15 mls of ice cold sucrose buffer (25 mM Tris-HCl, 0.32 M Sucrose, 0.25 g/L sodium azide, pH 7.4) with a motorized, glass fitted, Teflon homogenizer. The homogenate was centrifuged at 48,000×g at 4° C. for 10 minutes, resuspended in 25 ml assay buffer (50 mM Tris-HCl, 5 mM MgCl2, 10 mg/ml protease-free BSA, 0.1 mg/ml STI, and 0.1 mg/ml Pefabloc, pH 7.4) with a Tissue-Tearor (Biospec Products), then centrifuged again at 48,000×g for 10 minutes. The pellets were homogenized for a third time in 15 ml assay buffer using the Tissue-Tearor and again centrifuged at 48,000×g for 10 minutes. The resulting pellet was resuspended in assay buffer at a wet weight concentration of 4 mg/ml.
Binding assays were performed in 96-well U-bottom plates. […] Bound radioactivity was determined using a TopCount microplate scintillation and luminescence counter (Packard Instrument Company, PerkinElmer, Shelton, Conn.). Nonlinear regression analyses of resulting concentration curves were performed using GraphPad Prism (GraphPad Software, Inc., San Diego, Calif.).

[4] = luciferase reporter, 6 hours exposure, read-out: EC50 human
[5] = membranes of CHOK1 cells expressing human GLP-1 receptor, 0.2 nM 125I-GLP-1

T1 sequence (P43220 24-463): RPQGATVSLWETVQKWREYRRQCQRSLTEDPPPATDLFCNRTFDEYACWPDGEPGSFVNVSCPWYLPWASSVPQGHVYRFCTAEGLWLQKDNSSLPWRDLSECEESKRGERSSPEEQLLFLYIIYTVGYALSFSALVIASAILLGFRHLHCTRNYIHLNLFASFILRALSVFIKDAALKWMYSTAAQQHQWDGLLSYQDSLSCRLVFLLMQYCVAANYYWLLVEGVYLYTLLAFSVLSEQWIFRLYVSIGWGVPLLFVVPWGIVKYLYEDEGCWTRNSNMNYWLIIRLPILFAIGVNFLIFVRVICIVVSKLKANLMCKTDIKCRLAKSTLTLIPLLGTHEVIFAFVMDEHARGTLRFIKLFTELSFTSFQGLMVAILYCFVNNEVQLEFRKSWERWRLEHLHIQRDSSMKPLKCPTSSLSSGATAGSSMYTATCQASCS

With `CC[C@H](C)[C@H](NC(=O)[C@H](Cc1ccccc1)NC(=O)[C@H](CCC(=O)O)NC(=O)[C@H](CCCCN)NC(=O)[C@H](C)NC(=O)[C@H](C)NC(=O)[C@H](CCC(N)=O)NC(=O)CNC(=O)[C@H](CCC(=O)O)NC(=O)[C@H](CC(C)C)NC(=O)[C@H](Cc1ccc(O)cc1)NC(=O)[C@H](CO)NC(=O)[C@H](CO)NC(=O)[C@@H](NC(=O)[C@H](CC(=O)O)NC(=O)[C@H](CO)NC(=O)[C@@H](NC(=O)[C@H](Cc1ccccc1)NC(=O)[C@@H](NC(=O)CNC(=O)[C@H](CCC(=O)O)NC(=O)[C@H](C)NC(=O)[C@H](Cc1c[nH]cn1)NC(=O)[C@H](CCC(=O)O)NC(=O)[C@@H](N)CCSC)[C@@H](C)O)[C@@H](C)O)C(C)C)C(=O)N[C@@H](C)C(=O)N[C@@H](Cc1c[nH]c2ccccc12)C(=O)N[C@@H](CC(C)C)C(=O)N[C@H](C(=O)N[C@@H](CCCCN)C(=O)NCC(=O)N[C@@H](CCCNC(=N)N)C(=O)O)C(C)C` [ME-GLP1, ME HAEGTFTSDVSSYLEGQAAKEFIAWLVKGR] the EC50 [1, 4] was 1 nM and the EC50 [2] was 4 nM.

`CC[C@H](C)[C@H](NC(=O)[C@H](Cc1ccccc1)NC(=O)[C@H](CCC(=O)O)NC(=O)[C@H](CCCCN)NC(=O)[C@H](C)NC(=O)[C@H](C)NC(=O)[C@H](CCC(N)=O)NC(=O)CNC(=O)[C@H](CCC(=O)O)NC(=O)[C@H](CC(C)C)NC(=O)[C@H](Cc1ccc(O)cc1)NC(=O)[C@H](CO)NC(=O)[C@H](CO)NC(=O)[C@@H](NC(=O)[C@H](CC(=O)O)NC(=O)[C@H](CO)NC(=O)[C@@H](NC(=O)[C@H](Cc1ccccc1)NC(=O)[C@@H](NC(=O)CNC(=O)[C@H](CCC(=O)O)NC(=O)[C@H](C)NC(=O)[C@H](Cc1c[nH]cn1)NC(=O)[C@H](Cc1c[nH]cn1)NC(=O)[C@@H](N)CCSC)[C@@H](C)O)[C@@H](C)O)C(C)C)C(=O)N[C@@H](C)C(=O)N[C@@H](Cc1c[nH]c2ccccc12)C(=O)N[C@@H](CC(C)C)C(=O)N[C@H](C(=O)N[C@@H](CCCCN)C(=O)NCC(=O)N[C@@H](CCCNC(=N)N)C(=O)O)C(C)C` [MH-GLP1, MH HAEGTFTSDVSSYLEGQAAKEFIAWLVKGR] was tested, and the IC50 [3] was 350 nM.

In the case of “cgGLP-1: SEQ ID NO: 6 + 20K PEG (HGEGTFTSDVSSYLEGC(PEG 20 kDa)AAKEFIAWLVKGRG)”, the IC50 [3, 5] is reported as > 1000 nM and the EC50 [1, 4] is reported as 12 nM.

`CC[C@H](C)[C@H](NC(=O)[C@H](Cc1ccccc1)NC(=O)[C@H](CCC(=O)O)NC(=O)[C@H](CCCCN)NC(=O)[C@H](C)NC(=O)[C@H](C)NC(=O)[C@H](CCC(N)=O)NC(=O)CNC(=O)[C@H](CCC(=O)O)NC(=O)[C@H](CC(C)C)NC(=O)[C@H](Cc1ccc(O)cc1)NC(=O)[C@H](CO)NC(=O)[C@H](CO)NC(=O)[C@@H](NC(=O)[C@H](CC(=O)O)NC(=O)[C@H](CO)NC(=O)[C@@H](NC(=O)[C@H](Cc1ccccc1)NC(=O)[C@@H](NC(=O)CNC(=O)[C@H](CCC(=O)O)NC(=O)[C@H](C)NC(=O)[C@H](Cc1c[nH]cn1)NC(=O)[C@H](C)N)[C@@H](C)O)[C@@H](C)O)C(C)C)C(=O)N[C@@H](C)C(=O)N[C@@H](Cc1c[nH]c2ccccc12)C(=O)N[C@@H](CC(C)C)C(=O)N[C@H](C(=O)N[C@@H](CCCCN)C(=O)NCC(=O)N[C@@H](CCCNC(=N)N)C(=O)O)C(C)C` [A-GLP-1, A HAEGTFTSDVSSYLEGQAAKEFIAWLVKGR] was tested, and the IC50 [3] was 38 nM, the EC50 [1, 4] was 0.2 nM and the EC50 [2] was 0.8 nM.

With `CC[C@H](C)[C@H](NC(=O)[C@H](Cc1ccccc1)NC(=O)[C@H](CCC(=O)O)NC(=O)[C@@H]1CCC(=O)NCCCC[C@H](NC(=O)[C@H](CCC(=O)O)NC(=O)[C@H](CC(C)C)NC(=O)[C@H](Cc2ccc(O)cc2)NC(=O)[C@H](CO)NC(=O)[C@H](CO)NC(=O)[C@@H](NC(=O)[C@H](CC(=O)O)NC(=O)[C@H](CO)NC(=O)[C@@H](NC(=O)[C@H](Cc2ccccc2)NC(=O)[C@@H](NC(=O)CNC(=O)[C@H](CCC(=O)O)NC(=O)CNC(=O)[C@@H](N)Cc2c[nH]cn2)[C@@H](C)O)[C@@H](C)O)C(C)C)C(=O)N[C@@H](CCC(N)=O)C(=O)N[C@@H](C)C(=O)N[C@@H](C)C(=O)N1)C(=O)N[C@@H](C)C(=O)N[C@@H](Cc1c[nH]c2ccccc12)C(=O)N[C@@H](CC(C)C)C(=O)N[C@H](C(=O)N[C@@H](CCCCN)C(=O)NCC(=O)N[C@@H](CCCNC(=N)N)C(=O)NCC(N)=O)C(C)C` [GLP1(7-37) cyclo[Lys16-Glu20], HGEGTFTSDVSSYLEKQAAEEFIAWLVKGRG AMIDE] (H-HGEGTFTSDVSSYLEKQAAEEFIAWLVKGRG-NH2; lactam 16-20) the EC50 [1] was 0.016 nM.

Work on `CC[C@H](C)[C@H](NC(=O)[C@H](Cc1ccccc1)NC(=O)[C@H](CCC(=O)O)NC(=O)[C@H](CCCCN)NC(=O)[C@H](C)NC(=O)[C@H](C)NC(=O)[C@H](CCC(N)=O)NC(=O)CNC(=O)[C@H](CCC(=O)O)NC(=O)[C@H](CC(C)C)NC(=O)[C@H](Cc1ccc(O)cc1)NC(=O)[C@H](CO)NC(=O)[C@H](CO)NC(=O)[C@@H](NC(=O)[C@H](CC(=O)O)NC(=O)[C@H](CO)NC(=O)[C@@H](NC(=O)[C@H](Cc1ccccc1)NC(=O)[C@@H](NC(=O)CNC(=O)[C@H](CCC(=O)O)NC(=O)[C@H](C)NC(=O)[C@H](Cc1c[nH]cn1)NC(=O)[C@H](CCC(N)=O)NC(=O)[C@@H](N)CCSC)[C@@H](C)O)[C@@H](C)O)C(C)C)C(=O)N[C@@H](C)C(=O)N[C@@H](Cc1c[nH]c2ccccc12)C(=O)N[C@@H](CC(C)C)C(=O)N[C@H](C(=O)N[C@@H](CCCCN)C(=O)NCC(=O)N[C@@H](CCCNC(=N)N)C(=O)O)C(C)C` [MQ-GLP1, MQ HAEGTFTSDVSSYLEGQAAKEFIAWLVKGR] yielded an EC50 [1, 4] of 0.5 nM and an EC50 [2] of 3 nM.

Compound `CC[C@H](C)[C@H](NC(=O)[C@H](Cc1ccccc1)NC(=O)[C@H](CCC(=O)O)NC(=O)[C@H](CCCCN)NC(=O)[C@H](C)NC(=O)[C@H](C)NC(=O)[C@H](CCC(N)=O)NC(=O)CNC(=O)[C@H](CCC(=O)O)NC(=O)[C@H](CC(C)C)NC(=O)[C@H](Cc1ccc(O)cc1)NC(=O)[C@H](CO)NC(=O)[C@H](CO)NC(=O)[C@@H](NC(=O)[C@H](CC(=O)O)NC(=O)[C@H](CO)NC(=O)[C@@H](NC(=O)[C@H](Cc1ccccc1)NC(=O)[C@@H](NC(=O)CNC(=O)[C@H](CCC(=O)O)NC(=O)[C@H](C)NC(=O)[C@H](Cc1c[nH]cn1)NC(=O)[C@H](Cc1c[nH]c2ccccc12)NC(=O)[C@@H](N)CCSC)[C@@H](C)O)[C@@H](C)O)C(C)C)C(=O)N[C@@H](C)C(=O)N[C@@H](Cc1c[nH]c2ccccc12)C(=O)N[C@@H](CC(C)C)C(=O)N[C@H](C(=O)N[C@@H](CCCCN)C(=O)NCC(=O)N[C@@H](CCCNC(=N)N)C(=O)O)C(C)C` [MW-GLP1, MW HAEGTFTSDVSSYLEGQAAKEFIAWLVKGR] has an EC50 [1, 4] of 0.8 nM and an EC50 [2] of 5 nM.

“cgGLP-13: SEQ ID NO: 8 + 20k PEG monomer (HGEGTFTSDVSSYLEGC(PEG 20 kDa)AAKEFIAWLKNGGPSSGAPPPS)” was tested, and the IC50 [3, 5] was > 1000 nM and the EC50 [1, 4] was 1 nM.

Work on `CC[C@H](C)[C@H](NC(=O)[C@H](Cc1ccccc1)NC(=O)[C@H](CCC(=O)O)NC(=O)[C@H](CCCCN)NC(=O)[C@H](C)NC(=O)[C@H](C)NC(=O)[C@H](CCC(N)=O)NC(=O)CNC(=O)[C@H](CCC(=O)O)NC(=O)[C@H](CC(C)C)NC(=O)[C@H](Cc1ccc(O)cc1)NC(=O)[C@H](CO)NC(=O)[C@H](CO)NC(=O)[C@@H](NC(=O)[C@H](CC(=O)O)NC(=O)[C@H](CO)NC(=O)[C@@H](NC(=O)[C@H](Cc1ccccc1)NC(=O)[C@@H](NC(=O)CNC(=O)[C@H](CCC(=O)O)NC(=O)[C@H](C)NC(=O)[C@H](Cc1c[nH]cn1)NC(=O)[C@H](CCCCN)NC(=O)[C@@H](N)CCSC)[C@@H](C)O)[C@@H](C)O)C(C)C)C(=O)N[C@@H](C)C(=O)N[C@@H](Cc1c[nH]c2ccccc12)C(=O)N[C@@H](CC(C)C)C(=O)N[C@H](C(=O)N[C@@H](CCCCN)C(=O)NCC(=O)N[C@@H](CCCNC(=N)N)C(=O)O)C(C)C` [MK-GLP1, MK HAEGTFTSDVSSYLEGQAAKEFIAWLVKGR] yielded an EC50 [1, 4] of 4 nM.

In the case of “cgGLP-7: SEQ ID NO: 6 + 30k PEG (HGEGTFTSDVSSYLEGC(PEG 30 kDa)AAKEFIAWLVKGRG)”, the IC50 [3, 5] is reported as > 1000 nM.

“cgGLP-2: SEQ ID NO: 6 + 40k branched PEG (HGEGTFTSDVSSYLEGC(branched PEG 40 kDa)AAKEFIAWLVKGRG)” was tested, and the IC50 [3, 5] was > 1000 nM and the EC50 [1, 4] was 0.7 nM.
